Consider eight molecules from US20210071229A1, “FIBRINOGEN TEST” (DSM IP Assets B.V., priority 2018, published 2021).

The target of data set [1] is batroxobin (Bothrops atrox, UniProt P04971). Format: biochemical, Bothrops moojeni.
In data set [2] the test system is control plasma. In words: activated Partial Thromboplastin Time (aPTT) clotting test, spiked control plasma, BCS-XP. The format is biochemical.
For data set [3], the system named is control plasma.

“And” between values parts separate entries of the source, which are not always exact repeats. Equal entries are not always repeated. Where two headings read alike, the source gives them in different places.

batroxobin, sequence (P04971 25-255 limits assumed): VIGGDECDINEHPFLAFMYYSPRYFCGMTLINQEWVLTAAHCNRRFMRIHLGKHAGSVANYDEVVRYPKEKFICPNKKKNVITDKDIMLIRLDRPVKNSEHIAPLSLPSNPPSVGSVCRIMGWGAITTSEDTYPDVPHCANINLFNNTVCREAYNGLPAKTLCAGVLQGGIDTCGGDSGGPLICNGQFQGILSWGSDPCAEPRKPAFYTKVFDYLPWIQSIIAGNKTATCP

As for `[H]/N=C(/N)c1ccc(NCc2nc3cc(C(=O)N(CCC(=O)O)c4ccccn4)ccc3n2C)cc1` [Dabigatran], the “effect on Km of batroxobin-Pefachrome TH substrate” value (“effect on Km” below) in data set [1] (31-500 ng/mL) is “not significantly affected”.
Take `O=C(NC[C@H]1CN(c2ccc(N3CCOCC3=O)cc2)C(=O)O1)c1ccc(Cl)s1` [Rivaroxaban]: in data set [1], the “effect on Vmax of batroxobin-Pefachrome TH substrate” value is listed as “very slight reduction” and the “effect on enzyme activity of batroxobin” value was “did not significantly suppress”. Further, the “effect on Km” value in data set [1] (38-600 ng/mL) is reported as “not significantly affected”. Also, in data set [2] (38 ng/ml in plasma), the “aPTT-test CT” value was 39.46 s and 39.44 s; the “aPTT-test Mean” value was determined as 39.45 s; the aPTT-test delay is listed as 23%. For the same molecule, in data set [2] (600 ng/ml in plasma), the “aPTT-test CT” value was 80.73 s and 80.07 s; the “aPTT-test Mean” value came out at 80.40 s; the aPTT-test delay turned out to be 150%. For the same molecule, in data set [3] (38 ng/ml in plasma), the “PT-test CT” value is 10.74 s and 10.61 s; the “PT-test Mean” value was 10.68 s; the PT-test delay is listed as 6%. Moreover, in data set [3] (600 ng/ml in plasma), the “PT-test CT” value was 19.42 s and 19.32 s; the “PT-test Mean” value came out at 19.37 s; the PT-test delay came out at 92%.
`O=C(O)CN(CCN(CC(=O)O)CC(=O)O)CC(=O)O` [EDTA]: the “interference in batroxobin-Pefachrome TH reaction” value (“interference” below) in data set [1] is given as “failed to see significant interference”.
Turning to aprotinin, in data set [1], the “effect on enzyme activity of batroxobin vs untreated control” value is “did not significantly influence the activity”; the “predicted Vmax and Km vs untreated control” value is “not significantly different”.
The corresponding values for `NCCCCCC(=O)O` [6-aminocaproic acid] are “did not significantly influence the activity” and “not significantly different”.
As for `CC1CNc2c(cccc2S(=O)(=O)N[C@@H](CCCNC(=N)N)C(=O)N2CC[C@@H](C)C[C@@H]2C(=O)O)C1` (some centres unmarked) [Argatroban], in data set [1], the “effect on Vmax of batroxobin-Pefachrome TH substrate” value was “very slight reduction” and the “effect on enzyme activity of batroxobin” value is recorded as “did not significantly suppress”. Also, the “effect on Km” value in data set [1] (0.13-2.0 μg/mL) is reported as “not significantly affected”. For the same molecule, in data set [2] (0.13 μg/ml in plasma), the “aPTT-test CT” value was determined as 34.62 s, the “aPTT-test Mean” value is 34.62 s and the aPTT-test delay is 8%. In data set [2] (2.0 μg/ml in plasma), the “aPTT-test CT” value is 55.77 s and 55.46 s; the “aPTT-test Mean” value turned out to be 55.62 s; the aPTT-test delay came out at 73%. Besides, in data set [3] (0.13 μg/ml in plasma), the “PT-test CT” value was 10.18 s and 10.21 s; the “PT-test Mean” value came out at 10.20 s; the PT-test delay was 1%. In data set [3] (2.0 μg/ml in plasma), the “PT-test CT” value is 12.26 s and 12.24 s; the “PT-test Mean” value was found to be 12.25 s; the PT-test delay amounted to 22%.
As to hirudin, the “interference” value in data set [1] is “failed to see significant interference”.
With hydroxyethyl starch [HES], the “interference” value in data set [1] is recorded as “failed to see significant interference”.
